This is an account of results in patent publication US20250263423A1, “INHIBITORS OF RAS ONCOPROTEINS” (BridGene Biosciences, Inc., priority 2021, published 2025).

The structures appear in SMILES notation.

For the assay, the target named is Kras G12D (Homo sapiens (Human), UniProt P01116, G12D). The experiment in a line: HTRF-based nucleotide exchange assay detecting GTP binding to K-Ras. In kind it is biochemical. The conditions noted are these: SOS1 (aa 564-1049), fluorescently labelled GTP, compound incubated 1 h at RT. The method, then: Kras G12D was mixed with a-GST Tb antibody (1.5× solution) and 10 uL was delivered to reaction wells. A mixture of Kras G12D/aGST-Tb Ab/compound mixture was incubated for 1 h at RT. A 3× solution of SOS1 (aa 564-1049) and fluorescently labelled GTP* was prepared in reaction buffer and 5 μL of SOS1/GTP* solution was added to reaction well to initiate the exchange reaction. An IC50 was determined using a sigmoidal dose response (variable slope) equation. Note: Assay IC50 data are designated within the following ranges: A: ≤10 nM, B: >10 nM to ≤1000 nM, C: >1000 nM
Kras G12D, sequence (P01116-2 other isoform, or with tags, fused parts or gaps G12D): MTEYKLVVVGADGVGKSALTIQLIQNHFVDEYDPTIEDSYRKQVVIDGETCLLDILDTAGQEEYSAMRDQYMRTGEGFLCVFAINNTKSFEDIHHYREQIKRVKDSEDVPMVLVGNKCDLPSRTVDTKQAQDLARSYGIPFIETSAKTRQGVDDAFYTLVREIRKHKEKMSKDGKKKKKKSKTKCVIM
A general note: In TR-FRET formats the signal depends on donor and acceptor labels being close together.
`C#Cc1cccc2cc(O)cc(-c3ncc4c(N5C[C@@H]6C[C@H]5CN6)nc(OCC56CCCN5CCC6)nc4c3F)c12` (stereo in doubt) [Example 6, 4-(4-((1S,4S)-2,5-diazabicyclo[2.2.1]heptan-2-yl)-8-fluoro-2-((tetrahydro-1H-pyrrolizin-7a(5H)-yl)methoxy)pyrido[4,3-d]pyrimidin-7-yl)-5-ethynylnaphthalen-2-ol] yielded an IC50 of no more than 10 nM.
The figure for `C[C@@H]1CN(c2nc(OCC34CCCN3CCC4)nc3c(F)c(-c4cccc5cccc(Cl)c45)ncc23)C[C@H](C)N1` [Example 1, 7-(8-chloronaphthalen-1-yl)-4-((3R,5S)-3,5-dimethylpiperazin-1-yl)-8-fluoro-2-((tetrahydro-1H-pyrrolizin-7a(5H)-yl)methoxy)pyrido[4,3-d]pyrimidine] is greater than 1000 nM; for `C[C@H]1CN(c2nc(OCC34CCCN3CCC4)nc3c(F)c(-c4cccc5cccc(Cl)c45)ncc23)C[C@H](C)N1` [Example 2, 7-(8-chloronaphthalen-1-yl)-4-((3S,5S)-3,5-dimethylpiperazin-1-yl)-8-fluoro-2-((tetrahydro-1H-pyrrolizin-7a(5H)-yl)methoxy)pyrido[4,3-d]pyrimidine] it is 10 to 1000 nM; for `Fc1c(-c2cccc3cccc(Cl)c23)ncc2c(N3C[C@H]4CC[C@@H](C3)N4)nc(OCC34CCCN3CCC4)nc12` [Example 3, 4-((1R,5S)-3,8-diazabicyclo[3.2.1]octan-3-yl)-7-(8-chloronaphthalen-1-yl)-8-fluoro-2-((tetrahydro-1H-pyrrolizin-7a(5H)-yl)methoxy)pyrido[4,3-d]pyrimidine] it is no more than 10 nM.
Turning to `C#Cc1cccc2cc(O)cc(-c3ncc4c(N5CC6COCC(C5)N6)nc(OCC56CCCN5CCC6)nc4c3F)c12` [Example 4, 4-(4-(3-oxa-7,9-diazabicyclo[3.3.1]nonan-7-yl)-8-fluoro-2-((tetrahydro-1H-pyrrolizin-7a(5H)-yl)methoxy)pyrido[4,3-d]pyrimidin-7-yl)-5-ethynylnaphthalen-2-ol], the IC50 was no more than 10 nM.
Take `Fc1c(-c2cccc3cccc(Cl)c23)ncc2c(N3CC4CNCC4C3)nc(OCC34CCCN3CCC4)nc12` [Example 5, 4-[(3aR, 6aS)-2,3,3a,4,6,6a-hexahydro-1H-pyrrolo[3,4-c]pyrrol-5-yl]-7-(8-chloro-1-naphthyl)-8-fluoro-2-(1,2,3,5,6,7-hexahydropyrrolizin-8-ylmethoxy)pyrido[4,3-d]pyrimidine]: the IC50 was greater than 1000 nM.
The same measure for `C#Cc1cccc2cc(O)cc(-c3ncc4c(N5CC6CCCC(C5)N6)nc(OCC56CCCN5CCC6)nc4c3F)c12` [Example 7, 4-(4-(3,9-diazabicyclo[3.3.1]nonan-3-yl)-8-fluoro-2-((tetrahydro-1H-pyrrolizin-7a(5H)-yl)methoxy)pyrido[4,3-d]pyrimidin-7-yl)-5-ethynylnaphthalen-2-ol]: no more than 10 nM; for `C#Cc1cccc2cc(O)cc(-c3ncc4c(N5CC6CC(C5)N6)nc(OCC56CCCN5CCC6)nc4c3F)c12` [Example 8, 4-[4-(3,6-diazabicyclo[3.1.1]heptan-3-yl)-8-fluoro-2-(1,2,3,5,6,7-hexahydropyrrolizin-8-ylmethoxy)pyrido[4,3-d]pyrimidin-7-yl]-5-ethynyl-naphthalen-2-ol]: no more than 10 nM.

The term IC50 denotes the concentration that inhibits the measured activity by half. Read a high IC50 as weaker potency.
